Reference: patent US12448389B2, “BRM targeting compounds and associated methods of use” (Prelude Therapeutics Incorporated, priority 2020, dated 2025)

Tests used:
SMARCA2 = target: T1, SMARCA2 (Homo sapiens, UniProt P51531); assay: SMARCA2 protein degradation in NCIH520 cells by In Cell Western (ICW); format: cell-based; settings: highest concentration 1 μM; for DC50: H520 cells, overnight incubation (maximum 18 hours), read-out: DC50 (SM2_H520): SMARCA2 degradation potency; for Dmax: NCI-H520, overnight incubation (maximum 18 hours), read-out: Dmax % (SM2_H520): maximum SMARCA2 degradation within the concentrations tested
T1 construct: endogenous in cells; host or cells: NCI-H520 (given as NCIH520 / NCIH1520 / H520)
T1 sequence (P51531 whole entry): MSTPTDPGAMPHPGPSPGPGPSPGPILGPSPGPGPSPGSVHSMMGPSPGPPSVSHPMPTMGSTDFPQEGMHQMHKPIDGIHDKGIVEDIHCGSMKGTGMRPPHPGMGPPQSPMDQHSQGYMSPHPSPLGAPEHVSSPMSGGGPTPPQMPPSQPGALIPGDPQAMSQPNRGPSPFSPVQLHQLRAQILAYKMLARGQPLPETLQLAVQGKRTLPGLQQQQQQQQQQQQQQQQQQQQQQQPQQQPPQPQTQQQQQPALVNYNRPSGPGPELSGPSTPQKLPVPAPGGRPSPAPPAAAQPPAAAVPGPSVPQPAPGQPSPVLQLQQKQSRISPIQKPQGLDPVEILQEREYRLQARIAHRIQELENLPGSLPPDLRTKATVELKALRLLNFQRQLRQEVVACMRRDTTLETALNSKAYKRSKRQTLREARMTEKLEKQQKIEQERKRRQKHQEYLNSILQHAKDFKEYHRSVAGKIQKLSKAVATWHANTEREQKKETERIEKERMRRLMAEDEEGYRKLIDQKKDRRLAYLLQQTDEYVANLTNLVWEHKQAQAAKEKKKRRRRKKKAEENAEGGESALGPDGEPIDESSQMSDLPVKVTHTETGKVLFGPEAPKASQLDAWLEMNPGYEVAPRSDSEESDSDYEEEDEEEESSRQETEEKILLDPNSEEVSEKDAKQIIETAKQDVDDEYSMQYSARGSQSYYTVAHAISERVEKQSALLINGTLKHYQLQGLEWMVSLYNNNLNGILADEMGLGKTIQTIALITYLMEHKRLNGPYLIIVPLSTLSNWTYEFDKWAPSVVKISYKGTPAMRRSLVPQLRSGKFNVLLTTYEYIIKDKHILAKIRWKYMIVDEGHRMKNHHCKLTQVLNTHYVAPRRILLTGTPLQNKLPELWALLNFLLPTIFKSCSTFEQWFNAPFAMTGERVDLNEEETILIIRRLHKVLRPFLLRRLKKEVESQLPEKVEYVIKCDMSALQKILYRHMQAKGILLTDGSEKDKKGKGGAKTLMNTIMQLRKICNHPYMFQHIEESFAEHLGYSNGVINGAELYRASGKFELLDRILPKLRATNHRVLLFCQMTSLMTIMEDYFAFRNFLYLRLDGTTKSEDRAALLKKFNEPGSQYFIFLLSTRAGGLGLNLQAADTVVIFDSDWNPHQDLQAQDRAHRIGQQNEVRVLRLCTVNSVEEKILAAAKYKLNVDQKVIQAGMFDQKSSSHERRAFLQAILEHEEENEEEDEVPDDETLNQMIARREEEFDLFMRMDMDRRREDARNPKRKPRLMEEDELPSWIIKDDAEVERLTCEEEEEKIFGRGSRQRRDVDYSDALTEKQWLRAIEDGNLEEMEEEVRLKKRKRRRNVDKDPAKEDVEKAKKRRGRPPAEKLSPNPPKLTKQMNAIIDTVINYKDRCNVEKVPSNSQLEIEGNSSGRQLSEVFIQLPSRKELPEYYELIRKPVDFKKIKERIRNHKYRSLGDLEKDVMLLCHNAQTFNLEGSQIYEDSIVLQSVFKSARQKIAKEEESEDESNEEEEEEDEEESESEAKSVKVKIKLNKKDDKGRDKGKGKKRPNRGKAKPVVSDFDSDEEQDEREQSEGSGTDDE
Protocol: (§1) Compounds were dissolved in DMSO to make 10 mM stock and 3-fold series dilutions were further conducted keeping the highest concentration 10 μM. NCIH11693 and NCIH1520 cells were maintained in PRMI 1640 medium (Corning Cellgro, Catalog #: 10-040-CV) supplemented with 10% v/v FBS (GE Healthcare, Catalog #: SH30910.03) by splitting 1:3 twice a week.
(§2) SMACRA2 and SMARCA4 Protein Degradation DC50 Values in NCIH1693 and NCIH520 Cells by in Cell Western (ICW) Analysis.
(§3) Cells were trypsinized and 30 thousand cells/well were seeded into 384-well plates and were allowed to grow for 1-2 hours at 37° C. Eight-point, 3-fold serial dilutions of compounds from 0.5 mM stocks were added to the cells (using digital Dispenser D300-Tecan, keeping highest concentration 1 μM and normalizing with DMSO at the highest dispensed volume). Plates were incubated at 37° C. for overnight (maximum 18 hours). Cells incubated with DMSO was used as a vehicle control.
(§4) To perform In Cell Western, medium was removed from all the wells leaving cells attached to the surface. After removing the medium, cells were fixed within the plates with 40 μL of 4% formaldehyde by incubating at room temperature for 30 minutes, and then permeabilized with wash buffer (1×PBS with 0.1% Triton X-100) by washing the plate 5 times with 50 μL/well. Before labeling with primary antibodies, cells were blocked with 30 μL/well of blocking buffer (Licor Odyssey blocking buffer PBS #927-40000) for 30 minutes at room temperature. To measure SMARCA2 or SMARCA4 proteins, cells were labeled with 20 μL/well of anti SMARCA2 or SMACRA4 antibodies (Cell Signaling BRM #11966S 1:800, Cell Signaling BRG #49360S 1:800) diluted in Li-Cor Odyssey blocking buffer-PBS #927-40000, followed by overnight incubation at 4° C.
(§5) The next day, plates were washed 5×5 minutes with 50 μL/well of washing buffer to remove all the excess primary antibody and then 20 μL from a mixture of secondary antibody and fluorescent DNA specific dye (Goat anti rabbit 1:500 IRDye-800CW #92632211, and DRAQ5™ 1:2000-#ab108410) was added to each well. Plates were incubated for 1 hour at room temperature with gentle rocking. Cells were washed 5 times with 50 μL/well wash buffer, followed by one last wash with DI water, followed by 10 mins drying at 37° C. oven before scanning. Plates were scanned using Li-Cor Odyssey CLx imaging system to acquire integrated intensities at 700 nm and 800 nm. SMARCA signals were normalized to total cell count and then these normalized values were used to calculate the percent degradation relative to DMSO control and maximum inhibition. DC50s were calculated by using the GraphPad Prism4 program based on sigmoidal dose response equation ([Inhibitor] vs. normalized response-Variable slope).
(§6) In Table 36, the DC50/Dmax% (SM2_H520) refers to SMARCA2 degradation potency/maximum SMARCA2 degradation within the concentrations in H520 cells and DC50/Dmax% (SM4_H520) refers to SMARCA4 degradation potency/maximum SMARCA4 degradation within the concentrations tested in H520 cells.

SMARCA4 = target: T2, SMARCA4 (Homo sapiens, UniProt P51532); assay: SMARCA4 protein degradation in NCIH520 cells by In Cell Western (ICW); format: cell-based; settings: highest concentration 1 μM; for DC50: H520 cells, overnight incubation (maximum 18 hours), read-out: DC50 (SM4_H520): SMARCA4 degradation potency; for Dmax: NCI-H520, overnight incubation (maximum 18 hours), read-out: Dmax % (SM4_H520): maximum SMARCA4 degradation within the concentrations tested
T2 construct: endogenous in cells; host or cells: NCI-H520 (given as NCIH520 / NCIH1520 / H520)
T2 sequence (P51532 whole entry): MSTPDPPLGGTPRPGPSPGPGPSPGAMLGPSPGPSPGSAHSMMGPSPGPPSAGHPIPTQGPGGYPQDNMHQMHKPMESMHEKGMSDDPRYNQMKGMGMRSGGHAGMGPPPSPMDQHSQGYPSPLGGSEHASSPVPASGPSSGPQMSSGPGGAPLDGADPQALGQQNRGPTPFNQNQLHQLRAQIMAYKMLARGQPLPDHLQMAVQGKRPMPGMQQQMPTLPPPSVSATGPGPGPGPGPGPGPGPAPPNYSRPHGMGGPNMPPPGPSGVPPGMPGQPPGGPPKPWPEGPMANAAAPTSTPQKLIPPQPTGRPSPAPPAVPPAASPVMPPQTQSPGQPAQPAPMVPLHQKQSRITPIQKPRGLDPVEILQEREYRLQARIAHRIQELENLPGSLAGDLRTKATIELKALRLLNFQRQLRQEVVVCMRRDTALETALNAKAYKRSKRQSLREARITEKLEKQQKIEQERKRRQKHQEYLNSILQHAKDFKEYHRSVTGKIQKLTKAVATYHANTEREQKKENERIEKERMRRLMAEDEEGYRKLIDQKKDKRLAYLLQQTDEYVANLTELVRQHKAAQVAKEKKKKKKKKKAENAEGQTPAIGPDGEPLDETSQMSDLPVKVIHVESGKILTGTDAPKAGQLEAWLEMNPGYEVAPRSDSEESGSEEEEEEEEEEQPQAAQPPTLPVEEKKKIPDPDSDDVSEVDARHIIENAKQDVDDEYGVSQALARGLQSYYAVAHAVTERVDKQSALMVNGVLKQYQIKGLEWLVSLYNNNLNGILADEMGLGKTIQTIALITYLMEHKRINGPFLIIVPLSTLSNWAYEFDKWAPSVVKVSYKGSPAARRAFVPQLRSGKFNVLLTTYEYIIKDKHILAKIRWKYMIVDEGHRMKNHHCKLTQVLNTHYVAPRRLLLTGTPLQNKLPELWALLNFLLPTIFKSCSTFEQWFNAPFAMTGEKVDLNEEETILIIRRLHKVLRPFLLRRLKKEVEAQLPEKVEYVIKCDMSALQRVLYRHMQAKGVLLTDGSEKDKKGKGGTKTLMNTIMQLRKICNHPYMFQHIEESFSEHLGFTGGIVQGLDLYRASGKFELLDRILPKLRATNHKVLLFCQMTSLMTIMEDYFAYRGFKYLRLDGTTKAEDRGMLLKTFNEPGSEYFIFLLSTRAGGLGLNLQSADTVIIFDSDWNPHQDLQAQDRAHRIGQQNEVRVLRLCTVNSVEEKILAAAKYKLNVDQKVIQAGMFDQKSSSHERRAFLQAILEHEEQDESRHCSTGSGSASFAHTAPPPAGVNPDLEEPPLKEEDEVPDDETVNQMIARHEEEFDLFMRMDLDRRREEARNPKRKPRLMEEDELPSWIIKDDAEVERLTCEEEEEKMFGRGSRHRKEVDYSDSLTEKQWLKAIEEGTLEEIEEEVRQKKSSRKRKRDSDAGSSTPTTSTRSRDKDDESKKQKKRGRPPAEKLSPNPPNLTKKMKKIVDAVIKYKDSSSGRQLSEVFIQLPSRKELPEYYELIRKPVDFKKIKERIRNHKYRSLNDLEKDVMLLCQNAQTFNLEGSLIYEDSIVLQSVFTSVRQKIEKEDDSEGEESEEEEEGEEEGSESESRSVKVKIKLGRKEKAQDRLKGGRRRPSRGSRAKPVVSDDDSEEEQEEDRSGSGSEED
Protocol: as §1, §2, §3, §4, §5, §6

Row | DC50 (SMARCA2) | Dmax (SMARCA2) | DC50 (SMARCA4) | Dmax (SMARCA4) | SMILES
1 | < 0.1 µM | > 75% | < 0.1 µM | 50 to 75% | O=C1CCC(N2Cc3cc(CN4CCC(OCCN5CCC(N6CCN7c8cc(-c9ccccc9O)nnc8NC[C@H]7C6)CC5)CC4)ccc3C2=O)C(=O)N1 (stereo partly drawn) [Example 9, 3-(5-((4-(2-(4-((S)-2-(2-hydroxyphenyl)-5,6,6a,7,9,10-hexahydro-8H-pyrazino[1′,2′:4,5]pyrazino[2,3-c]pyridazin-8-yl)piperidin-1-yl)ethoxy)piperidin-1-yl)methyl)-1-oxoisoindolin-2-yl)piperidine-2,6-dione]
2 | < 0.1 µM | > 75% | < 0.1 µM | 50 to 75% | O=C1CCC(N2C(=O)c3ccc(N4CCN(CCN5CCC(N6CCN7c8cc(-c9ccccc9O)nnc8NC[C@H]7C6)C5)CC4)cc3C2=O)C(=O)N1 (stereo partly drawn) [Example 12, 2-(2,6-Dioxopiperidin-3-yl)-5-(4-(2-(3-((S)-2-(2-hydroxyphenyl)-5,6,6a,7,9,10-hexahydro-8H-pyrazino[1′,2′:4,5]pyrazino[2,3-c]pyridazin-8-yl)pyrrolidin-1-yl)ethyl)piperazin-1-yl) isoindoline-1,3-dione]
3 | < 0.1 µM | > 75% | < 0.1 µM | > 75% | O=C1CCC(N2C(=O)c3ccc(N4CCC(N5CCC(N6CCN7c8cc(-c9ccccc9O)nnc8NC[C@H]7C6)CC5)CC4)cc3C2=O)C(=O)N1 (stereo partly drawn) [Example 14, 2-(2,6-dioxopiperidin-3-yl)-5-(4-((S)-2-(2-hydroxyphenyl)-5,6,6a,7,9,10-hexahydro-8H-pyrazino[1′,2′:4,5]pyrazino[2,3-c]pyridazin-8-yl)-[1,4′-bipiperidin]-1′-yl) isoindoline-1,3-dione]
4 | < 0.1 µM | > 75% | < 0.1 µM | > 75% | O=C1CCC(N2Cc3cc(CCN4CCC(c5cnc(N6CCN7c8cc(-c9ccccc9O)nnc8NC[C@H]7C6)nc5)CC4)ccc3C2=O)C(=O)N1 (stereo partly drawn) [Example 1, 3-(5-(2-(4-(2-((S)-2-(2-hydroxyphenyl)-5,6,6a,7,9,10-hexahydro-8H-pyrazino [1′,2′:4,5]pyrazino[2,3-c]pyridazin-8-yl)pyrimidin-5-yl)piperidin-1-yl)ethyl)-1-oxoiso-indolin-2-yl)piperidine-2,6-dione]
5 | < 0.1 µM | > 75% | < 0.1 µM | > 75% | O=C1CCC(N2Cc3cc(CCN4CCC(CCc5cnc(N6CCN7c8cc(-c9ccccc9O)nnc8NC[C@@H]7C6)nc5)CC4)ccc3C2=O)C(=O)N1 (stereo partly drawn) [Example 5, 3-(5-(2-(4-(2-(2-((R)-2-(2-hydroxyphenyl)-5,6,6a,7,9,10-hexahydro-8H-pyrazino[1′,2′:4,5]pyrazino[2,3-c]pyridazin-8-yl)pyrimidin-5-yl)ethyl)piperidin-1-yl)ethyl)-1-oxoisoindolin-2-yl)piperidine-2,6-dione]
6 | < 0.1 µM | > 75% | < 0.1 µM | > 75% | O=C1CCC(N2C(=O)c3ccc(N4CCC(N5CCC(N6CCN7c8cc(-c9ccccc9O)nnc8NC[C@H]7C6)CC5)C4)cc3C2=O)C(=O)N1 (stereo partly drawn) [Example 13, 2-(2,6-Dioxopiperidin-3-yl)-5-(3-(4-((S)-2-(2-hydroxyphenyl)-5,6,6a,7,9,10-hexahydro-8H-pyrazino[1′,2′:4,5]pyrazino[2,3-c]pyridazin-8-yl)piperidin-1-yl)pyrrolidin-1-yl) isoindoline-1,3-dione]
7 | < 0.1 µM | > 75% | < 0.1 µM | > 75% | O=C1CCC(n2c3ccc(CCCN4CCC(N5CCC(N6CCN7c8cc(-c9ccccc9O)nnc8NC[C@H]7C6)CC5)CC4)cc3c3cccnc32)C(=O)N1 (stereo partly drawn) [Example 20, 3-(6-(3-(4-((S)-2-(2-hydroxyphenyl)-5,6,6a,7,9,10-hexahydro-8H-pyrazino [1′,2′:4,5]pyrazino[2,3-c]pyridazin-8-yl)-[1,4′-bipiperidin]-1′-yl)propyl)-9H-pyrido[2,3-b]indol-9-yl)piperidine-2,6-dione]
8 | < 0.1 µM | > 75% | < 0.1 µM | > 75% | O=C1CCC(N2Cc3cc(CCCN4CCC(c5cnc(N6CCN7c8cc(-c9ccccc9O)nnc8NC[C@@H]7C6)nc5)CC4)ccc3C2=O)C(=O)N1 (stereo partly drawn) [Example 2, 3-(5-(3-(4-(2-((R)-2-(2-hydroxyphenyl)-5,6,6a,7,9,10-hexahydro-8H-pyrazino[1′,2′:4,5]pyrazino[2,3-c]pyridazin-8-yl)pyrimidin-5-yl)piperidin-1-yl)propyl)-1-oxoisoindolin-2-yl)piperidine-2,6-dione]
9 | < 0.1 µM | > 75% | < 0.1 µM | > 75% | O=C1CCC(n2c3ccc(CCCN4CCC(N5CCN6c7cc(-c8ccccc8O)nnc7NC[C@H]6C5)CC4)cc3c3cccnc32)C(=O)N1 (stereo partly drawn) [Example 19, 3-(6-(3-(4-((S)-2-(2-hydroxyphenyl)-5,6,6a,7,9,10-hexahydro-8H-pyrazino [1′,2′:4,5]pyrazino[2,3-c]pyridazin-8-yl)piperidin-1-yl)propyl)-9H-pyrido[2,3-b]indol-9-yl) piperidine-2,6-dione]
10 | < 0.1 µM | > 75% | < 0.1 µM | > 75% | O=C1CCC(N2C(=O)c3ccc(N4CCN(CCCN5CCC(N6CCN7c8cc(-c9ccccc9O)nnc8NC[C@H]7C6)CC5)CC4)cc3C2=O)C(=O)N1 (stereo partly drawn) [Example 11, 2-(2,6-Dioxopiperidin-3-yl)-5-(4-(3-(4-((S)-2-(2-hydroxyphenyl)-5,6,6a,7,9,10-hexahydro-8H-pyrazino[1′,2′:4,5]1pyrazino[2,3-c]pyridazin-8-yl)piperidin-1-yl)propyl)piperazin-1-yl) isoindoline-1,3-dione]
11 | < 0.1 µM | > 75% | < 0.1 µM | > 75% | O=C1CCC(N2Cc3cc(CCN4CC=C(c5cnc(N6CCN7c8cc(-c9ccccc9O)nnc8NC[C@H]7C6)nc5)CC4)ccc3C2=O)C(=O)N1 (stereo partly drawn) [Example 6, 3-(5-(2-(4-(2-((S)-2-(2-hydroxyphenyl)-5,6,6a,7,9,10-hexahydro-8H-pyrazino[1′,2′:4,5]pyrazino[2,3-c]pyridazin-8-yl)pyrimidin-5-yl)-3,6-dihydropyridin-1(2H)-yl)ethyl)-1-oxoisoindolin-2-yl)piperidine-2,6-dione]
12 | < 0.1 µM | 50 to 75% | – | – | O=C1CCC(N2C(=O)c3ccc(N4CCC(OCCN5CCC(N6CCN7c8cc(-c9ccccc9O)nnc8NC[C@H]7C6)C5)CC4)cc3C2=O)C(=O)N1 (stereo partly drawn) [Example 15, 2-(2,6-Dioxopiperidin-3-yl)-5-(4-(2-(3-((S)-2-(2-hydroxyphenyl)-5,6,6a,7,9,10-hexahydro-8H-pyrazino[1′,2′:4,5]pyrazino[2,3-c]pyridazin-8-yl)pyrrolidin-1-yl)ethoxy)piperidin-1-yl) isoindoline-1,3-dione]
13 | < 0.1 µM | > 75% | – | – | O=C1CCC(n2c3ccc(CCCN4CCC(c5cnc(O[C@H]6C[C@@H]7CNc8nnc(-c9ccccc9O)cc8N7C6)nc5)CC4)cc3c3cccnc32)C(=O)N1 (stereo partly drawn) [Example 23, 3-(6-(3-(4-(2-(((6aR,8S)-2-(2-hydroxyphenyl)-5,6,6a,7,8,9-hexahydro-pyrrolo[1′,2′:4,5]pyrazino[2,3-c]pyridazin-8-yl)oxy)pyrimidin-5-yl)piperidin-1-yl)propyl)-9H-pyrido[2,3-b]indol-9-yl)piperidine-2,6-dione]
